Data on 2 compounds can be found in patent US8129427B2, “2-phenylethylamino derivatives as calcium and/or sodium channel modulators” (Newron Pharmaceuticals S.p.A., priority 2005, dated 2012).

In general, IC50 refers to the midpoint of a concentration-inhibition curve.

Assay [1] has as its target T1, recombinant Nav 1.3 channels (Homo sapiens, UniProt Q9NY46).
T1 construct: expressed in transfected cells; host or cells: HEK293 cells
In words: Patch clamp studies of sodium currents inhibition in HEK293 cells. In kind it is cell-based. To be noted: tonic block, preconditioning −50 mV (half maximal steady-state inactivated condition); read-out: IC50 (Vhalf). The protocol: Cells and methods: Functional inhibition of the sodium currents was studied using whole cell patch clamp methods (Hamill O. P., Marty A., Neher E., Sakmann B., Sigworth F. J., Pflugers Arch. (1981) 391 (2): 85-100) on HEK293 cells expressing recombinant Nav 1.3 channels. Membrane currents were recorded as described in the example above.
For sodium current recording control bath solution contained (mM): NaCl (80), Choline chloride (38), CaCl2 (1.3), MgCl2 (2), KCl (2), CdCl2 (0.4), NiCl2 (0.3), TEA.Cl (20), Hepes (10), Glucose (10). Internal pipette solution consisted of (mM): EGTA (10), NaCl (10), CaCl2 (1.3), MgCl2 (2), Hepes (10), CsF (130), MgATP (1).
Compounds were dissolved as 20 mM stock solutions in DMSO and then diluted to the final concentration in the external solutions.
Voltage protocols and data analyses: A two-step protocol was used to determine the voltage dependence of the block:
sodium current was activated by a 30 ms step pulse to 10 mV (test pulse) from a 2000 ms preconditioning potential of −100 mV (resting condition) or −50 mV (half maximal steady-state inactivated condition), respectively.
The amplitude of sodium current peaks evoked by the respective test pulses at a frequency of 0.06 Hz were measured before and after exposure to the test substance. Tonic block of currents was calculated as the difference between the Nacurrent peak measured at the end of a stabilization period in the control external bath solution and the current peak measured at the end of test substance perfusion period (when steady state is reached) divided by control peaks. Drug concentration-inhibition curves were obtained by plotting tonic blocks versus drug concentrations. Dose-response curves were fitted to the tonic block data, according to the logistic equation: y=A2+(A1−A2)/[1+(x/IC50)^p]. A1 and A2 are fixed values of 0 and 1 corresponding to 0 and 100% current inhibition, x is the drug concentration, IC50 is the drug concentration resulting in 50% current inhibition and p is the corresponding slope factor.
Background: Patch clamp records ionic current or voltage across a cell membrane.

Assay [2] concerns chronic constriction injury model in the rat. In words: Bennett model of neuropathic pain in rats (cold allodynia). The assay is classed as in vivo. The conditions noted are these: AUD of cold allodynia as percent inhibition of vehicle control. Here is the method: Effects on neuropathic pain are tested in the chronic constriction injury model in the rat (Bennett, G. J. and Xie, Y. K., A peripheral mononeuropathy in rat that produces disorders of pain sensation like those seen in man, Pain, 33 (1988) 87-107). Under pentobarbital anesthesia (Nembutal, 50 mg/kg, i.p.), unilateral multiple ligations are performed on male Sprague-Dawley rats (140-160 g) at the right common sciatic nerve. The sciatic nerve is exposed by blunt dissection at the level of mid-thigh and four loose ligatures (5-0 chromic catgut) are placed around the nerve taking care not to interrupt the epineural circulation. After operation, animals are allowed to recover for one week. Animals develop a cold allodynia which is stable for at least five weeks. […] The animals, randomly assigned to groups of 10 for each test dose and vehicle, are observed for periods of 2 minutes before and after application of test compound and the number of brisk withdrawal reactions is counted. […] Percent maximal possible effect (% MPE) and standard error of the mean (SEM) of each time point is determined with the pre-test value used as […]. The area under the data (AUD) is calculated for the observation period and expressed as percent inhibition of vehicle control as shown in Table 8. Significance is calculated by paired t-test on the percent AUD values.

Assay [3] deals with sodium currents of cortical neurons. In words: Inhibition of sodium currents in cortical neurons (whole cell patch clamp). The assay is classed as cell-based. The conditions noted are these: embryonic Wistar rat cortical neurons, preconditioning −50 mV (half maximal steady-state condition); read-out: IC50 (Vhalf). The protocol:
Cell Preparation and culturing: cortical neurons were prepared from embryonic Wistar rats (E17-E19). Brains of E17/E19 rats were removed and placed in ice-cold Hank's solution (Hank's solution (Life tech.14170-088)+glucose 30%+Pen-Strep 100× (Life Tech. 15140-122) 100 U-100 μg/ml and Hepes-NaOH 5 mM).
Cortex were isolated, cut in small parts and washed twice with Hank's solution. The solution was removed except 1-2 ml and the tissue was mechanically dissociated. After the mechanical dissociation, 5 ml of complete DMEM (Dulbecco's modified Eagle medium) (Gibco 41966-029)+FBS (Hyclone) 10%+Glutamine (Life Tech. 25030-024) 2 mM+Pen-Strep 100 U-100 μg/ml were added, and cell suspension was centrifuged for 5 min at 1000 rpm. Supernatant was removed and 5 ml of complete Neurobasal medium was added (Neurobasal medium (Life tech. 21103-049)+B27 (Life tech. 17504-044) 2%+Glutamine 2 mM+Pen-Strep 100 U-100 μg/ml)
Cells were counted and diluted in Neurobasal medium to a concentration of 400000 cells per poly-D-lysine 5 μg/ml treated Petri dish. […]
Whole Cell Patch Clamp Recordings: Experiments on cortical neurons were carried out using standard whole cell patch clamp methods (Hamill et al., 1981). Membrane currents were recorded and filtered at 5 kHz with an Axon Axopatch 200B amplifier and data digitized with an Axon Digidata 1322A (Axon Instruments, CA, USA). […]

T1 sequence (Q9NY46 whole entry): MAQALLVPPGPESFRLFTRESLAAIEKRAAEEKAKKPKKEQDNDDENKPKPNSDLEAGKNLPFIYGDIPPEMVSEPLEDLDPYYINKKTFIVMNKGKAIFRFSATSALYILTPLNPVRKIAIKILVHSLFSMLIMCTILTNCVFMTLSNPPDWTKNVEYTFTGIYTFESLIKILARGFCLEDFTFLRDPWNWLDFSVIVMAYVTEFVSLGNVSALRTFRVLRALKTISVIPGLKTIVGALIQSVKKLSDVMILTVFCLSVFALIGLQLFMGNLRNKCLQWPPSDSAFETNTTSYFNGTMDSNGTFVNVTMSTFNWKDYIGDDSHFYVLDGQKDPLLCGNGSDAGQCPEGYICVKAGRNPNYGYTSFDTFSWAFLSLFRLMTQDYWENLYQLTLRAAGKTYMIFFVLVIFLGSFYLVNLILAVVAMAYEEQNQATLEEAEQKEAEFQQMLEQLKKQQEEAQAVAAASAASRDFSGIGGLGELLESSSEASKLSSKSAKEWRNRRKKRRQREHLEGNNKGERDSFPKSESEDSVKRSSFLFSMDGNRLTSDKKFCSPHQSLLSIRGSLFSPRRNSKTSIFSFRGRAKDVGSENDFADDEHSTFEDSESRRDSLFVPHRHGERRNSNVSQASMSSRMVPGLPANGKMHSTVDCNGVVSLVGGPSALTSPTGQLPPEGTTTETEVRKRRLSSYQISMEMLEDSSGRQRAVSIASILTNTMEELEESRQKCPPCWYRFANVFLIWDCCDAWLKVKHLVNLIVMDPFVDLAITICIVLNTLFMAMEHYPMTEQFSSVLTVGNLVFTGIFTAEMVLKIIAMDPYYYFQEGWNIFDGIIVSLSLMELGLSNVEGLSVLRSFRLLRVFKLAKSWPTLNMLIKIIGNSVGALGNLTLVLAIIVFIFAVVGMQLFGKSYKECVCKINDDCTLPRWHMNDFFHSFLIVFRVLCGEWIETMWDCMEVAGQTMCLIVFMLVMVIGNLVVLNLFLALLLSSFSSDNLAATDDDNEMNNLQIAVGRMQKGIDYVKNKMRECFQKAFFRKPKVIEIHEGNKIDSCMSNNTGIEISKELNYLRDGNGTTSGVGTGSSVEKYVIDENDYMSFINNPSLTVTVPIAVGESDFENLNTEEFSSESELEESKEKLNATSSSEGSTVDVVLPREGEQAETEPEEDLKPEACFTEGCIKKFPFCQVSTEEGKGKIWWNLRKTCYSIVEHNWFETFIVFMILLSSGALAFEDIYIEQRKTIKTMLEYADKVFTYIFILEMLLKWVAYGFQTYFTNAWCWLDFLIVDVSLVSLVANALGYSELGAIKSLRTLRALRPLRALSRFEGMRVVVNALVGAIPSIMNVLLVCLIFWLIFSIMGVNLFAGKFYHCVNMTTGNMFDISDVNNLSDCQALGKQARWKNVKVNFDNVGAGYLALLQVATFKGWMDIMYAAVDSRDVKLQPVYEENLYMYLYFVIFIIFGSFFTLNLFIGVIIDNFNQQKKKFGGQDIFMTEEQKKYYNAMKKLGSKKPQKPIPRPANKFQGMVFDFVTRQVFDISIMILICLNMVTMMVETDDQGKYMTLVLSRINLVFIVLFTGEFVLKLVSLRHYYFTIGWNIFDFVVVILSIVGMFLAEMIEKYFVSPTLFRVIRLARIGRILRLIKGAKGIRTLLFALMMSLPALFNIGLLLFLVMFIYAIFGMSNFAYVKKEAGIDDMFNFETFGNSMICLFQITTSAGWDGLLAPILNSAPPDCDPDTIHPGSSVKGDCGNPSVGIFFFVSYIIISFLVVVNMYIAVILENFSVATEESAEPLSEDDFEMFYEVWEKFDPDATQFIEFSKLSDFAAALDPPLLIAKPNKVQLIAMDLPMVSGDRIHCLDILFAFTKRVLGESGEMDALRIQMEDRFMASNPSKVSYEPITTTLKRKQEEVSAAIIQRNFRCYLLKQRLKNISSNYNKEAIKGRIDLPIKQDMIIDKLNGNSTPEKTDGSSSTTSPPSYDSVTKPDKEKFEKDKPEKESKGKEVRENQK

On to `CCCCOc1cccc(CCN(CC(=O)N(C)C)CC2CCOC2)c1.Cl` (racemic) [Example 96, 2-[[2-(3-Butoxy-phenyl)-ethyl]-(tetrahydrofuran-3-ylmethyl)amino]-N,N-dimethyl-acetamide hydrochloride], for which the values for the IC50 in assay [1] and in assay [3] were 3.1 µM and 0.5 µM, respectively. For the same compound, in assay [2] (0.1 mg/kg p.o.), the “Change vs. Control” value worked out at 35.7%.
For `C[C@H](NCc1ccc(OCc2ccccc2F)cc1)C(N)=O` [ralfinamide, (S)-(+)-2-[4-(2-fluoro-benzyloxy)-benzylamino]-propanamide, reference compound], the IC50 is 15 µM in assay [1] and 9 µM in assay [3]. For the same compound, the “Change vs. Control” value in assay [2] (1.0 mg/kg p.o.) came to 23.7%.
